Data: ChEMBL document CHEMBL1130031, “Binding affinities for sulfonamide inhibitors with human thrombin using Monte Carlo simulations with a linear response method” (J Med Chem, 1997)

Target: Prothrombin (Homo sapiens, UniProt P00734)
Assay: Inhibition constant against human thrombin

| SMILES | Ki [nM] |
| --- | --- |
| CC1CNc2c(cccc2S(=O)(=O)N[C@@H](CCCNC(N)N)C(=O)N2CC[C@H](C)C[C@@H]2C(=O)O)C1 (stereo in doubt; 1c) | 280000 |
| CC1CNc2c(cccc2S(=O)(=O)N[C@@H](CCCNC(N)N)C(=O)N2CC[C@H](C)C[C@@H]2C(=O)O)C1 (stereo in doubt; 1g) | 240 |
| CC1CNc2c(cccc2S(=O)(=O)N[C@@H](CCCNC(N)N)C(=O)N2CC[C@H](C)C[C@@H]2C(=O)O)C1 (stereo in doubt; 1b) | 1900 |

The next molecules have a lower Ki than those just listed; values first:

| Ki [nM] | SMILES |
| --- | --- |
| 130 | CC1CNc2c(cccc2S(=O)(=O)N[C@@H](CCCNC(N)N)C(=O)N2CCCCC2)C1 (stereo partly specified) |
| 30 | CC1CCN(C(=O)[C@H](CCCNC(N)N)NS(=O)(=O)c2cccc3c2NCC(C)C3)CC1 (stereo partly specified) |
| 19 | CC1CNc2c(cccc2S(=O)(=O)N[C@@H](CCCNC(N)N)C(=O)N2CC[C@@H](C)C[C@@H]2C(=O)O)C1 (stereo partly specified) |
